Assay results reported in patent publication US20220162548A1, “PRODUCING ISOTHIOCYANATES FROM CALLUS SUSPENSION CULTURES” (PERPETUUM CROPSCIENCE BVBA, priority 2019, published 2022).

Tested on: NON-GMO Impala F1 Cabbage (Brassica oleracea L. var. capitata) callus cultures
Assay: Elicitation of callus cultures, benzyl isothiocyanate accumulation and callus weight
Type: cell-based
Details: for Concentration of benzyl isothiocyanate / Dry weight / Fresh weight: four weeks of culture
Protocol: 10 g of calli (fresh weight/vessel) was transferred to the same medium composition in addition to different concentrations of chitosan (200, 400 and 600 mg/L) and salicylic acid (10, 20 and 40 mg/L) as biotic elicitors, in addition to the control treatment without elicitors. After calli was collected, the fresh and dry weights were determined. Dry weight was determined after drying the calli at 45° C. in an oven until a constant weight was obtained. Benzyl Isothiocyanate concentration was also recorded with each treatment. After four weeks of culture, data was documented.
To determine Benzyl Isothiocyanate content, high performance liquid chromatography (HPLC) was performed. The extraction of Benzyl Isothiocyanate was carried out from calli and cells from Erlenmeyer flask culture and single-use ReadyToProcess WAVE Cellbag bioreactor experiments. Samples were homogenized using a glass mortar and pestle (MilliporeSigma, Belgium) containing 70:30 (v:v) MeOH:sterilized water. Extracts were then transferred to glass stoppered Erlenmeyer flasks (DWK Life Sciences) and conditioned in a thermostatic bath (Fisherscientific, Belgium) under constant agitation. For 30 minutes the extraction was carried out at 70° C. and then filtered on Invitrolon PVDF membranes (Polyvinylidene Fluoride) ([…], ThermoFisher Scientific, Belgium) prior to HPLC injection.
Methanolic extracts of the samples were analyzed by HPLC for Benzyl Isothiocyanate concentration using an external standard. HPLC system (Ultimate 3000 Automated System, ThermoFisher Scientific, Belgium) was coupled with UV-Vis detector (UltiMate 3000 Multiple Wavelength Detector, ThermoFisher Scientific, Belgium) and vacuum degasser (UltiMate 3000 SRD-3400 HPLC Degasser, ThermoFisher Scientific, Belgium).
Sample injections of 20 μl were made by an autosampler (UltiMate 3000 WPS-3000 Autosampler, ThermoFisher Scientific, Belgium); the chromatographic separations were performed on C18 Reversed Phase LC columns (Accucore C18 LC Columns, ThermoFisher Scientific, Belgium). Column temperature was maintained at 30° C. and detection wavelength was 253 nm. Optimum efficiency of separation was obtained using methanol (solvent A), and acetonitrile (solvent B) (HPLC grade, Sigma Aldrich, Belgium). The flow rate was 1 ml/minute. The running time for each analysis was 60 minutes, and 10 minutes were required for column cleaning and equilibrium.
The Benzyl Isothiocyanate concentration of the injected samples was calculated as μg/g fresh weight of sample.
Experiments were conducted in a completely randomized design with at least 30 replicates per treatment for the calli experiment and 4 replicates for the cell suspension culture experiments. Data were subjected to statistical analysis by Analysis of Variance (Anova) programme using Duncan's multiple range test as modified by Snedecor and Cochran. Values marked with different letters were considered to be statistically different at p<0.04.

O=C(O)c1ccccc1O [Salicylic acid]
increase in Benzyl Isothiocyanate accumulation over the control treatment (salicylic acid 10 mg/L): 1.7 times | Concentration of benzyl isothiocyanate (salicylic acid 10 mg/L): 2.174 μg/g fresh weight | Dry weight (salicylic acid 10 mg/L): 4.807 g | Fresh weight (salicylic acid 10 mg/L): 5.985 g | Concentration of benzyl isothiocyanate (salicylic acid 20 mg/L): 2.039 μg/g fresh weight | Dry weight (salicylic acid 20 mg/L): 4.424 g | Fresh weight (salicylic acid 20 mg/L): 4.981 g | Concentration of benzyl isothiocyanate (salicylic acid 40 mg/L): 1.956 μg/g fresh weight | Dry weight (salicylic acid 40 mg/L): 5.107 g | Fresh weight (salicylic acid 40 mg/L): 5.509 g
